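Cells were grown in 96-well plates and exposed to each compound for 48 hours at five concentrations; endpoints were interpolated linearly between bracketing concentrations, or set to the highest concentration if not reached. At the GI50, growth is halved.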 Activity calls are given as the source filed them. Cut-off read from the data, not from the text of the source: active = GI50 up to about 1.1 µM and inactive = higher.

Test systems include IGROV-1; DU-145; M14; SK-OV-3; BT-549; HT-29; OVCAR-4; U-251; SNB-19; UO-31; SW-620; T47D; NCI-H226; Malme-3M; SF-268; KM12; CCRF-CEM; A498; SN12C; SF-295.
Holding throughout (assay): DTP human tumour cell line panel, 48 h

Turning to `O=C(O)c1ccc(NCc2nc3cc4ccccc4cc3[nH]2)cc1`, the GI50 in the assay with IGROV-1, in the assay on DU-145, in the assay on M14, in the assay with SK-OV-3, in the assay on BT-549 and in the assay on HT-29 was > 100 µM (inactive) in each case. Further, the GI50 is > 90.4 µM (inactive) in the assay on OVCAR-4; > 100 µM (inactive) in the assay on U-251; > 100 µM (inactive) with SNB-19; > 100 µM (inactive) in the assay on UO-31; > 100 µM (inactive) in the assay on SW-620; > 100 µM (inactive) with T47D. Moreover, the GI50 in the assay on NCI-H226 was > 100 µM (inactive); in the assay on Malme-3M it was 0.0462 µM (active); with SF-268, > 100 µM (inactive); in the assay with KM12, > 100 µM (inactive); with CCRF-CEM, > 100 µM (inactive); with A498 it was > 100 µM (inactive). Further, the figures for the GI50 in the assay on SN12C and in the assay with SF-295 were > 88.5 µM (inactive) and > 100 µM (inactive), respectively.
For `OC1[C@@H]2[C@@H](O)[C@H](O)[C@@H](O)N2C[C@@H]1O` (some centres undefined), the GI50 with IGROV-1, in the assay with DU-145, in the assay on M14, in the assay on SK-OV-3, with BT-549 and with HT-29 was > 100 µM (inactive) in each case. The GI50 in the assay with OVCAR-4, with U-251, in the assay on SNB-19, with UO-31, in the assay on SW-620 and in the assay with T47D was > 100 µM (inactive) throughout. Besides, the GI50 with NCI-H226, in the assay on Malme-3M, in the assay on SF-268, in the assay with KM12, with CCRF-CEM and with A498 was > 100 µM (inactive) in each case. Also, the GI50 in the assay with SN12C and in the assay on SF-295 was > 100 µM (inactive) in each case.
With `CCOC(=O)c1cc2cc(Cc3ccc4[nH]c(C(=O)OCC)cc4c3)ccc2[nH]1`, the GI50 was 15.4 µM (inactive) in the assay with IGROV-1; 31.3 µM (inactive) with DU-145; > 100 µM (inactive) in the assay on M14; 13.6 µM (inactive) in the assay with SK-OV-3; 12.6 µM (inactive) with BT-549; 35.4 µM (inactive) in the assay with HT-29. Also, the GI50 in the assay with OVCAR-4 is 6.7 µM (inactive); in the assay with U-251 it was 11.2 µM (inactive); with SNB-19 it was 13 µM (inactive); with UO-31, 59 µM (inactive); with SW-620, 63.5 µM (inactive); with T47D, 32.4 µM (inactive). The GI50 with NCI-H226 is 18.6 µM (inactive); in the assay on Malme-3M, 37.1 µM (inactive); with SF-268, 13.5 µM (inactive); in the assay with KM12, 23.7 µM (inactive); in the assay on CCRF-CEM it was 57.5 µM (inactive); in the assay with A498 it was 17.3 µM (inactive). Also, the results for the GI50 in the assay with SN12C and in the assay on SF-295 were 23.7 µM (inactive) and 17.5 µM (inactive), respectively.
For `O=C(/C=C1\Nc2ccccc2N\C1=C\C(=O)c1ccc(Cl)cc1)c1ccccc1`, the GI50 is > 100 µM (inactive) with IGROV-1; > 100 µM (inactive) in the assay on DU-145; 18.3 µM (inactive) in the assay with M14; 70 µM (inactive) with SK-OV-3; 34.5 µM (inactive) in the assay with BT-549; 31.3 µM (inactive) in the assay with OVCAR-4. The GI50 was 23.4 µM (inactive) in the assay with U-251; 94.4 µM (inactive) in the assay with SNB-19; 21.4 µM (inactive) in the assay with UO-31; > 100 µM (inactive) in the assay with SW-620; 16 µM (inactive) with T47D; > 100 µM (inactive) in the assay on NCI-H226. Besides, the GI50 was > 100 µM (inactive) in the assay on Malme-3M; > 100 µM (inactive) in the assay on SF-268; 64.4 µM (inactive) with KM12; 10.4 µM (inactive) in the assay on CCRF-CEM; 73.6 µM (inactive) in the assay with A498; 47.2 µM (inactive) with SN12C. The GI50 in the assay on SF-295 is 40.3 µM (inactive).
With `COC(=O)c1c(O)ccc2c1c1c(n2Cc2ccccc2OC)C(=O)c2ccccc2C1`, the GI50 is 63.1 µM (inactive) in the assay with IGROV-1; > 100 µM (inactive) in the assay with DU-145; 46.2 µM (inactive) with M14; 78.5 µM (inactive) in the assay with SK-OV-3; > 100 µM (inactive) in the assay on BT-549; 36.5 µM (inactive) with HT-29. Further, the GI50 in the assay with OVCAR-4 was 29.7 µM (inactive); with U-251, 63.4 µM (inactive); with SNB-19, > 100 µM (inactive); in the assay on UO-31, 44.5 µM (inactive); in the assay on SW-620 it was 81.1 µM (inactive); with T47D, 81.3 µM (inactive). In addition, the GI50 with NCI-H226 was 70.3 µM (inactive); in the assay on Malme-3M it was > 100 µM (inactive); with SF-268 it was 40.5 µM (inactive); in the assay on KM12 it was 93.5 µM (inactive); in the assay with CCRF-CEM, 24.6 µM (inactive); in the assay on A498, > 100 µM (inactive). In addition, the GI50 in the assay with SN12C was 22.8 µM (inactive).
For the compound `Cc1ccc2c(c1)Sc1ccc(/N=N/N(C)C)cc1N2C`, the GI50 is > 100 µM (inactive) in the assay on IGROV-1; > 100 µM (inactive) in the assay on DU-145; > 100 µM (inactive) with M14; > 100 µM (inactive) in the assay with SK-OV-3; 71 µM (inactive) with BT-549; > 100 µM (inactive) in the assay on HT-29. The GI50 in the assay on OVCAR-4 was > 100 µM (inactive); with U-251 it was > 100 µM (inactive); with SNB-19, > 100 µM (inactive); with UO-31, > 100 µM (inactive); with SW-620, > 100 µM (inactive); in the assay with T47D, 31.7 µM (inactive). In addition, the GI50 is > 100 µM (inactive) in the assay with NCI-H226; > 100 µM (inactive) in the assay with Malme-3M; > 100 µM (inactive) in the assay on SF-268; 48.8 µM (inactive) in the assay on KM12; 46 µM (inactive) in the assay on CCRF-CEM; > 100 µM (inactive) in the assay on A498. Moreover, the GI50 in the assay on SN12C and in the assay on SF-295 was > 100 µM (inactive) throughout.
Regarding `CCOC(=O)c1sc(N)nc1N1CCCC1`, the GI50 with IGROV-1, in the assay with DU-145, with M14, in the assay on SK-OV-3, in the assay on BT-549 and with HT-29 was > 100 µM (inactive) in each case. For the same compound, the GI50 in the assay with OVCAR-4, in the assay on U-251, in the assay on SNB-19, in the assay with UO-31, in the assay with SW-620 and in the assay on T47D was > 100 µM (inactive) each time. For the same compound, the GI50 in the assay on NCI-H226, in the assay with Malme-3M, with KM12, in the assay on CCRF-CEM, in the assay on A498 and with SN12C was > 100 µM (inactive) in each case. For the same compound, in the assay with SF-295, the GI50 was > 100 µM (inactive).
`CN(/N=C/c1ccc(C(=O)O)cc1)C1=NCCCCN1`: the GI50 with IGROV-1, in the assay on DU-145, in the assay with M14, with SK-OV-3, in the assay with BT-549 and with HT-29 was > 100 µM (inactive) throughout. Besides, the GI50 with OVCAR-4, in the assay on U-251, with SNB-19, in the assay with UO-31, with T47D and in the assay on NCI-H226 was > 100 µM (inactive) each time. Besides, the GI50 in the assay with Malme-3M, in the assay on SF-268, in the assay with KM12, with CCRF-CEM, in the assay on A498 and in the assay with SN12C was > 100 µM (inactive) throughout. In the assay with SF-295, the GI50 was > 100 µM (inactive).
With `O=[N+]([O-])c1ccc(/N=N\c2c(O)c(S(=O)(=O)O)cc3cc(S(=O)(=O)O)ccc23)cc1`, the GI50 in the assay on IGROV-1, in the assay with DU-145, in the assay with M14, in the assay on SK-OV-3, with BT-549 and with HT-29 was > 100 µM (inactive) each time. Moreover, the GI50 in the assay with OVCAR-4, in the assay with U-251, in the assay with SNB-19, in the assay with UO-31, in the assay with SW-620 and in the assay with T47D was > 100 µM (inactive) in each case. Moreover, the GI50 with NCI-H226, with Malme-3M, with CCRF-CEM, in the assay with A498, in the assay on SN12C and with SF-295 was > 100 µM (inactive) in each case.
Take `Cc1occc1/C(S)=N\c1ccc(Cl)c(C(=O)OCC2CC2)c1`: the GI50 in the assay with IGROV-1 is 37.3 µM (inactive); with DU-145, 73.3 µM (inactive); in the assay on M14 it was 85.5 µM (inactive); in the assay with SK-OV-3, 35.6 µM (inactive); in the assay with BT-549, 22.7 µM (inactive); in the assay with HT-29 it was 34.7 µM (inactive). For the same compound, the GI50 in the assay on OVCAR-4 was 32 µM (inactive); in the assay with U-251, 95.3 µM (inactive); in the assay with SNB-19, 54.2 µM (inactive); in the assay with UO-31, 58.5 µM (inactive); in the assay on SW-620, 54.7 µM (inactive); in the assay with T47D, 35 µM (inactive). For the same compound, the GI50 in the assay with NCI-H226 is 53.2 µM (inactive); in the assay with Malme-3M, 88.5 µM (inactive); in the assay with SF-268, 36.1 µM (inactive); in the assay with KM12, 32.3 µM (inactive); with CCRF-CEM it was 20.7 µM (inactive); in the assay with A498, 35.8 µM (inactive). In addition, the GI50 is 34.9 µM (inactive) in the assay with SN12C and 29.4 µM (inactive) in the assay on SF-295.

Usually GI50 stands for the concentration that inhibits growth by half.

Source of the values: ChEMBL document CHEMBL1201862, “PubChem BioAssay data set” (2004).
